Laboratory results as given in patent US20130123325A1, “USE OF BOCEPREVIR AND RELATED COMPOUNDS IN ATHEROSCLEROSIS, HEART FAILURE, RENAL DISEASES, LIVER DISEASES OR INFLAMMATORY DISEASES” (priority 2011, published 2013).

Target: T1, Recombinant human cathepsin A (Homo sapiens, UniProt P10619)
T1 construct: Recombinant human cathepsin A (residues 29-480, with a C-terminal 10-His tag); 10-His (C); purchased R & D Systems 1049-SE
T1 sequence (P10619 29-326 limits assumed): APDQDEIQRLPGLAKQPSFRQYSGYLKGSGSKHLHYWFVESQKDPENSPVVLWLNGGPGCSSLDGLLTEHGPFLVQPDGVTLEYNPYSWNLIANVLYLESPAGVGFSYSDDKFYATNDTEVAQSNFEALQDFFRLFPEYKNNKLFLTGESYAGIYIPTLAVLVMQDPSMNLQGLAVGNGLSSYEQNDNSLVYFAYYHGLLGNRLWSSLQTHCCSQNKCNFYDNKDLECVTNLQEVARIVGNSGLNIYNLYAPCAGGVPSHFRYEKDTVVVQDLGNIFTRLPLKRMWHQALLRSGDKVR
T1 sequence (P10619 327-480 limits assumed): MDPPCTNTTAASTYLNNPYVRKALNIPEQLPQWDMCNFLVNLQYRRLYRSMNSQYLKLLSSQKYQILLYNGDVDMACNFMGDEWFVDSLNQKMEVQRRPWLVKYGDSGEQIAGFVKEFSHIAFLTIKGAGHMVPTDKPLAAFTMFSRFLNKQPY
Experiment: Cathepsin A inhibitory activity
Format: biochemical
Conditions: Bodipy FL-labeled bradykinin substrate 2 μM, pH 5.5, microfluidic capillary electrophoresis
Procedure: Recombinant human cathepsin A (residues 29-480, with a C-terminal 10-His tag; R & D Systems, # 1049-SE) was proteolytically activated with recombinant human cathepsin L (R & D Systems, # 952-CY). Briefly, cathepsin A was incubated at 10 μg/ml with cathepsin L at 1 μg/ml in activation buffer (25 mM 2-(morpholin-4-yl)-ethanesulfonic acid (MES), pH 6.0, containing 5 mM dithiothreitol (DTT)) for 15 min at 37° C. Cathepsin L activity was then stopped by the addition of the cysteine protease inhibitor E-64 (N-(trans-epoxysuccinyl)-L-leucine-4-guanidinobutylamide; Sigma-Aldrich, # E3132; dissolved in activation buffer/DMSO) to a final concentration of 10 μM.
The activated cathepsin A was diluted in assay buffer (25 mM MES, pH 5.5, containing 5 mM DTT) and mixed with the test compound (dissolved in assay buffer containing (v/v) 3% DMSO) or, in the control experiments, with the vehicle in a multiple assay plate. […]
Uncleaved substrate and product were then separated by a microfluidic capillary electrophoresis on a LabChip® 3000 Drug Discovery System (12-Sipper-Chip; Caliper Life Sciences) and quantified by determination of the respective peak areas. Substrate turnover was calculated by dividing product peak area by the sum of substrate and product peak areas, and the enzyme activity and the inhibitory effect of the test compound thus quantified. […]

IC50: 1000 nM
SMILES: CC(C)(C)NC(=O)N[C@H](C(=O)N1C[C@H]2[C@@H]([C@H]1C(=O)NC(CC1CCC1)C(=O)C(N)=O)C2(C)C)C(C)(C)C (stereo partly drawn) [Boceprevir, (1R,2S,5S)—N-[(2E)-4-amino-1-cyclobutyl-3,4-dioxobutan-2-yl]-3-{(2S)-2-[(tert-butylcarbamoyl)amino]-3,3-dimethylbutanoyl}-6,6-dimethyl-3-azabicyclo[3.1.0]hexane-2-carboxamide]
